Results reported in patent US6737383B1, “Herbicidal oxadiazolidines” (priority 1999, dated 2004).

Key:
bamyardgrass = assay: Test B flood test barnyardgrass; format: in vivo, Echinochloa crus-galli
Summary of the method: (§1)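 Flood test on plants grown to the 2-leaf stage; treated plants kept in greenhouse twelve to sixteen days, then visually rated against controls on a 0 (no effect) to 10 (complete control) scale.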

rice = assay: Test B flood test rice; format: in vivo, Oryza sativa
Summary of the method: as §1

winter barley = assay: Test E winter barley; format: in vivo, Hordeum vulgare; conditions: Preemergence
large crabgrass = assay: Test D large crabgrass; format: in vivo, Digitaria sanguinalis; conditions: Preemergence, 0 to 100 scale
Summary of the method: (§2)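 Herbicide screen in the greenhouse. A non-phytotoxic solvent mixture with surfactant carried the test chemical; in pre-emergence tests it went onto the soil of pots seeded no more than a day earlier. Injury was scored by eye 14 to 21 days after application, 0 to 100.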

giant foxtail = assay: Test B pre/postemergence giant foxtail; format: in vivo, Setaria faberii
Summary of the method: (§3)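 Response is a visual 0-to-10 score relative to untreated plants, where 0 means no effect and 10 means complete control, taken twelve to sixteen days after application. Treatments went onto soil at planting and onto foliage of 1- to 4-leaf plants, using a surfactant-containing non-phytotoxic solvent.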

green foxtail = assay: Test E green foxtail; format: in vivo, Setaria viridis; conditions: Preemergence
wild oat = assay: Test E wild oat; format: in vivo, Avena fatua; conditions: Preemergence
soybean = assay: Test B pre/postemergence soybean; format: in vivo, Glycine max
Summary of the method: as §3

winter wheat [1] = assay: Test E winter wheat; format: in vivo, Triticum aestivum; conditions: Postemergence
Summary of the method: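 Compounds formulated in non-phytotoxic solvent mixture with surfactant; for postemergence, sprayed on plants at 1- to 4-leaf stage grown in 60:40 sandy loam/greenhouse potting mix. Kept in greenhouse ~21 to 28 days, then visually rated against untreated controls.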

blackgrass = assay: Test E blackgrass; format: in vivo, Alopecurus myosuroides; conditions: Preemergence
purple nutsedge = assay: Test D purple nutsedge; format: in vivo, Cyperus rotundus; conditions: Preemergence, 0 to 100 scale; for Purple nutsedge plant response rating: 0 no injury, 100 complete control
Summary of the method: as §2

winter wheat [2] = assay: Test E winter wheat; format: in vivo, Triticum aestivum; conditions: Preemergence
Italian ryegrass = assay: Test E Italian ryegrass; format: in vivo, Lolium multiflorum; conditions: Preemergence
[3] = Postemergence, Rate 62 g/ha, scale 0 to 10, 0 is no effect, 10 is complete control
[4] = Rate 250 g/ha, headed Pre-emergence (flood test species), scale 0 to 10 (0 no effect, 10 complete control)
[5] = Rate 500 g/ha, headed Pre-emergence (flood test species), scale 0 to 10 (0 no effect, 10 complete control)
[6] = Rate 500 g/ha, listed under Postemergence (flood test species), scale 0 to 10, 0 no effect, 10 complete control
[7] = Rate 1000 g/ha, Pre-emergence (as headed), scale 0 to 10
[8] = Rate 500 g/ha, 0 to 100 scale where 0 is no effect and 100 is complete control
[9] = Rate 1000 g/ha, 0 to 100 scale where 0 is no effect and 100 is complete control
[10] = Postemergence, Rate 125 g/ha, scale of 0 to 10 where 0 is no effect and 10 is complete control
[11] = Preemergence, Rate 62 g/ha, scale 0 to 10 (0 no effect, 10 complete control)
[12] = Preemergence, Rate 125 g/ha, scale 0 to 10 (0 no effect, 10 complete control)
[13] = Preemergence, Rate 250 g/ha, scale of 0 to 10 where 0 is no effect and 10 is complete control
[14] = Preemergence, Rate 500 g/ha, scale 0 (no effect) to 10 (complete control)
[15] = Rate 500 g/ha, Postemergence, scale 0 to 10, 0 no effect, 10 complete control
[16] = Rate 250 g/ha, Postemergence, scale 0 to 10, 0 is no effect, 10 is complete control
[17] = Rate 500 g/ha, 0 to 100 scale, 0 no effect, 100 complete control
[18] = Rate 125 g/ha, 0 to 100 scale (0 no effect, 100 complete control)
[19] = Preemergence, Rate 125 g/ha, 0 is no effect, 10 is complete control
[20] = Preemergence, Rate 250 g/ha, scale 0 to 10, 0 is no effect, 10 is complete control
[21] = Preemergence, Rate 500 g/ha, scale 0 to 10 (0 no effect, 10 complete control)
[22] = Rate 62 g/ha, Postemergence, scale of 0 to 10 where 0 is no effect and 10 is complete control
[23] = Rate 500 g/ha, Postemergence, scale 0 to 10

For `CC(C)N(C(=O)n1oc(=O)n(Cc2ccccc2)c1=O)c1ccccc1` [Compound 94], the “Barnyardgrass plant response rating” value (bamyardgrass; [3]) was 0, the “Barnyardgrass plant response rating” value (bamyardgrass; Rate 125 g/ha, Postemergence section (flood test species), scale 0 to 10, 0 no effect, 10 complete control) was 0 and the “Barnyardgrass plant response rating” value (bamyardgrass; [4]) was 0. For the same compound, the “Plant response rating, Barnyardgrass” value (bamyardgrass; [5]) was 0, the “Barnyardgrass plant response rating” value (bamyardgrass; [6]) was 9 and the “Barnyardgrass plant response rating” value (bamyardgrass; [7]) was 0. For the same compound, the “Barnyardgrass plant response rating” value (bamyardgrass; Rate 2000 g/ha, Pre-emergence (as headed), scale 0 to 10, 0 no effect, 10 complete control) was 7, the “Barnyardgrass plant response rating” value (bamyardgrass; flood test, listed under Postemergence, Rate 250 g/ha, scale 0 to 10, 0 no effect, 10 complete control) was 0 and the “Rice plant response rating” value (rice; Postemergence (flood test species), Rate 125 g/ha, scale of 0 to 10 where 0 is no effect and 10 is complete control) was 0. The “Rice plant response rating” value (rice; [3]) was 0, the “Plant response rating, Rice” value (rice; Rate 250 g/ha, Postemergence (flood test), scale 0 to 10, 0 is no effect, 10 is complete control) was 0 and the “Rice plant response rating” value (rice; [4]) was 0. The “Plant response rating, Rice” value (rice; [5]) was 0, the “Rice plant response rating” value (rice; [6]) was 0 and the “Rice plant response rating” value (rice; [7]) was 0. For the same compound, the “Rice plant response rating” value (rice; Rate 2000 g/ha, Pre-emergence (as headed), scale 0 to 10) was 0, the “Plant response rating, Barley (winter)” value (winter barley; Rate 250 g/ha, 0 to 100 scale) was 40 and the “Plant response rating, Barley (winter)” value (winter barley; [8]) was 50. The “Plant response rating, Barley (winter)” value (winter barley; [9]) was 50, the “Plant response rating Large crabgrass” value (large crabgrass; Rate 125 g/ha, 0 no injury, 100 complete control) was 98 and the “Plant response rating Large crabgrass” value (large crabgrass; Rate 500 g/ha) was 100. For the same compound, the “Giant foxtail plant response rating” value (giant foxtail; [3]) was 0, the “Giant foxtail plant response rating” value (giant foxtail; [10]) was 0 and the “Giant foxtail plant response rating” value (giant foxtail; Postemergence, Rate 250 g/ha, scale 0 to 10, 0 no effect, 10 complete control) was 5. For the same compound, the “Giant foxtail plant response rating” value (giant foxtail; [11]) was 8, the “Plant response rating, Giant foxtail” value (giant foxtail; [12]) was 9 and the “Plant response rating, Giant foxtail” value (giant foxtail; [13]) was 9. The “Giant foxtail plant response rating” value (giant foxtail; [14]) was 10, the “Giant foxtail plant response rating” value (giant foxtail; [15]) was 8 and the “Plant response rating, Green foxtail” value (green foxtail; Rate 250 g/ha, 0 to 100 scale) was 80. The “Plant response rating, Green foxtail” value (green foxtail; [8]) was 90, the “Plant response rating, Green foxtail” value (green foxtail; [9]) was 100 and the “Plant response rating, Wild oat” value (wild oat; [8]) was 40. For the same compound, the “Plant response rating, Wild oat” value (wild oat; [9]) was 50, the “Soybean plant response rating” value (soybean; [3]) was 5 and the “Soybean plant response rating” value (soybean; [10]) was 5. The “Soybean plant response rating” value (soybean; [11]) was 0, the “Plant response rating, Soybean” value (soybean; [12]) was 0 and the “Plant response rating, Soybean” value (soybean; [13]) was 0. For the same compound, the “Soybean plant response rating” value (soybean; [14]) was 0, the “Plant response rating, Soybean” value (soybean; [16]) was 5 and the “Soybean plant response rating” value (soybean; [15]) was 5. For the same compound, the “Plant response rating, Wheat (winter)” value (winter wheat [1]; Rate 250 g/ha, 0 to 100 scale (0 no effect, 100 complete control)) was 0, the “Plant response rating, Wheat (winter)” value (winter wheat [1]; Rate 1000 g/ha, 0 to 100 scale, 0 is no effect and 100 is complete control) was 0 and the “Plant response rating, Wheat (winter)” value (winter wheat [1]; [17]) was 0. The “Plant response rating, Blackgrass” value (blackgrass; Rate 250 g/ha, 0 to 100 scale) was 60, the “Plant response rating, Blackgrass” value (blackgrass; [8]) was 60 and the “Plant response rating, Blackgrass” value (blackgrass; [9]) was 60. The “Purple nutsedge plant response rating” value (purple nutsedge; Rate 125 g/ha) was 50, the “Plant response rating, Purple nutsedge” value (purple nutsedge; Rate 500 g/ha) was 50 and the “Plant response rating, Wheat (winter)” value (winter wheat [2]; Rate 250 g/ha, 0 to 100 scale) was 30. For the same compound, the “Plant response rating, Wheat (winter)” value (winter wheat [2]; [8]) was 30, the “Plant response rating, Wheat (winter)” value (winter wheat [2]; [9]) was 40 and the “Plant response rating, I. Ryegrass” value (Italian ryegrass; Rate 250 g/ha, 0 to 100 scale) was 40. For the same compound, the “Plant response rating, I. Ryegrass” value (Italian ryegrass; [8]) was 60 and the “Plant response rating, I. Ryegrass” value (Italian ryegrass; [9]) was 60.
For `Cc1ccc(N(C(=O)n2oc(=O)n(C(C)C)c2=O)C(C)C)cc1` [Compound 132], the “Plant response rating, Barley (winter)” value (winter barley; [18]) was 10, the “Barley (winter) plant response rating (0 to 100 scale)” value (winter barley; Rate 250 g/ha) was 50 and the “Plant response rating, Barley (winter)” value (winter barley; [8]) was 60. The “Plant response rating Large crabgrass” value (large crabgrass; Rate 64 g/ha, 0 no injury, 100 complete control) was 100, the “Giant foxtail plant response rating” value (giant foxtail; [10]) was 9 and the “Giant foxtail plant response rating” value (giant foxtail; [11]) was 8. The “Giant foxtail plant response rating (0 to 10 scale)” value (giant foxtail; [19]) was 8, the “Giant foxtail plant response rating” value (giant foxtail; [20]) was 9 and the “Giant foxtail plant response rating” value (giant foxtail; [21]) was 10. For the same compound, the “Giant foxtail plant response rating” value (giant foxtail; [22]) was 8, the “Plant response rating, Giant foxtail” value (giant foxtail; [16]) was 9 and the “Giant foxtail plant response rating” value (giant foxtail; [23]) was 9. For the same compound, the “Plant response rating, Green foxtail” value (green foxtail; [18]) was 60, the “Green foxtail plant response rating (0 to 100 scale)” value (green foxtail; Rate 250 g/ha) was 98 and the “Plant response rating, Green foxtail” value (green foxtail; [8]) was 100. For the same compound, the “Plant response rating, Wild oat” value (wild oat; [18]) was 35, the “Wild oat plant response rating (0 to 100 scale)” value (wild oat; Rate 250 g/ha) was 50 and the “Plant response rating, Wild oat” value (wild oat; [8]) was 65. For the same compound, the “Soybean plant response rating” value (soybean; [10]) was 3, the “Soybean plant response rating” value (soybean; [11]) was 0 and the “Soybean plant response rating (0 to 10 scale)” value (soybean; [19]) was 0. The “Soybean plant response rating” value (soybean; [20]) was 2, the “Soybean plant response rating” value (soybean; [21]) was 4 and the “Soybean plant response rating” value (soybean; [22]) was 3. The “Plant response rating, Soybean” value (soybean; [16]) was 4, the “Soybean plant response rating” value (soybean; [23]) was 6 and the “Plant response rating, Wheat (winter)” value (winter wheat [1]; Rate 125 g/ha, 0 to 100 scale) was 20. For the same compound, the “Plant response rating, Wheat (winter)” value (winter wheat [1]; [17]) was 80, the “Wheat (winter) plant response rating” value (winter wheat [1]; Rate 250 g/ha, 0 to 100 scale where 0 is no effect and 100 is complete control) was 50 and the “Plant response rating, Blackgrass” value (blackgrass; [18]) was 20. The “Blackgrass plant response rating (0 to 100 scale)” value (blackgrass; Rate 250 g/ha) was 60, the “Plant response rating, Blackgrass” value (blackgrass; [8]) was 75 and the “Purple nutsedge plant response rating” value (purple nutsedge; Rate 64 g/ha) was 0. For the same compound, the “Plant response rating, Wheat (winter)” value (winter wheat [2]; [18]) was 30, the “Wheat (winter) plant response rating (0 to 100 scale)” value (winter wheat [2]; Rate 250 g/ha) was 40 and the “Plant response rating, Wheat (winter)” value (winter wheat [2]; [8]) was 60. The “Plant response rating, I. Ryegrass” value (Italian ryegrass; [18]) was 20, the “I. Ryegrass plant response rating (0 to 100 scale)” value (Italian ryegrass; Rate 250 g/ha) was 100 and the “Plant response rating, I. Ryegrass” value (Italian ryegrass; [8]) was 100.
